Test results taken from patent US4820867A, “Phenoxypropoxy halophenylacetic acids as leukotriene antagonists” (Merck Frosst Canada, Inc., priority 1986, dated 1989).

Test system: leukotriene D4 induced bronchoconstriction
Assay: inhibition of leukotriene D4 induced bronchoconstriction in anaesthetized guinea pigs (modified Konzett-Rossler)
Type: in vivo, guinea pig
Parameters: % Inhibition After 30 Min.: concentration or dose not given beside the values
Settings: for ED50: Cavia porcellus, 10 min, directly into the duodenum, dose producing 50% inhibition when given 10 minutes before LTD4, read-out: ED50 (median effective dose), inhibition of LTD4 induced bronchoconstriction; for % Inhibition After 30 Min.: inhibition of LTD4 induced bronchoconstriction, intraduodenal, 30 min after antagonist administration
Experimental: The antagonist activity of the compounds of the present invention was determined by measuring their ability to inhibit leukotriene D4 induced bronchoconstriction in anaesthetized guinea pigs (modified Konzett-Rossler). When administrated directly into the duodenum (oral activity) they are active at 2.5-5 mg/kg. Oral activity is defined as the dose producing 50% inhibition when given 10 minutes before LTD4. Percent inhibition was determined at 10 minutes and also at 30 and 50 minutes after antagonist administration. The time interval between LTD4 administration was kept constant at 20 minutes in all experiments.
Table I is a comparison between three known leukotriene antagonists (entries 1, 2 and 3, see: G.B. Pat. No. 2,058,785, supra) and several compounds of the present invention (4-9).

SMILES	ED50 [mg/kg]	% Inhibition After 30 Min. [%]
CCCc1c(OCCCOc2ccc(C(=O)O)cc2)ccc(C(C)=O)c1O [Entry 1, reference compound]	10	59
CCCc1c(OCCCOc2cccc(CCC(=O)O)c2)ccc(C(C)=O)c1O [Entry 2, reference compound]	10	32
CCCc1c(OCCCOc2ccc(C=CC(=O)O)cc2)ccc(C(C)=O)c1O [Entry 3, reference compound]	20	56
CCCc1c(OCCCOc2ccc(CC(=O)O)cc2F)ccc(C(C)=O)c1O [Entry 4, 4-(3-(4-Acetyl-3-hydroxy-2-propylphenoxy)-propoxy)-3-fluorobenzene acetic acid]	10	100
CCCc1c(OCC(O)COc2ccc(CC(=O)O)cc2F)ccc(C(C)=O)c1O (stereo not drawn) [Entry 5, 4-(3-(4-Acetyl-3-hydroxy-2-propylphenoxy)-2-hydroxypropoxy)-3-fluorobenzeneacetic acid]	2.5	50
CCCc1c(OCC(O)COc2ccc(CC(=O)O)cc2Br)ccc(C(C)=O)c1O (stereo not drawn) [Entry 6, 4-(3-(4-Acetyl-3-hydroxy-2-propylphenoxy)-2-hydroxypropoxy)-3-bromobenzene acetic acid]	2.5	35
CCCc1c(OCC(O)COc2ccc(CC(=O)O)cc2Cl)ccc(C(C)=O)c1O (stereo not drawn) [Entry 7, 4-(3-(4-Acetyl-3-hydroxy-2-propylphenoxy)-2-hydroxypropoxy)-3-chlorobenzeneacetic acid]	10	63
CCCc1c(OCCCOc2ccc(CC(=O)O)cc2Cl)ccc(C(C)=O)c1O [Entry 8, 4-(3-(4-acetyl-3-hydroxy-2-propylphenoxy)propoxy)-3-chlorobenzene acetic]	5	60
CCCc1c(OCCCOc2ccc(CC(=O)O)cc2Br)ccc(C(C)=O)c1O [Entry 9, 4-(3-(4-Acetyl-3-hydroxy-2-propylphenoxy)-propoxy)-3-bromobenzene acetic acid]	10	87
